Measurements as given in article PMC3064523 (Clinical cancer research : an official journal of the …, 2010).
Where “and” joins values, the source holds several entries; their conditions need not be identical. Equal values may be shown once. Entries after “also recorded” stand apart in the source; their conditions may differ. Read-outs that look alike come from different tables or passages of the source.

Legend:
[1] = test system: children with refractory solid or CNS tumors; assay: Phase 1 trial: dose-limiting and non-dose-limiting toxicities of oral VPA; assay type: in vivo, human; conditions: for Description of DLTs: cycle 1
[2] = test system: children with newly diagnosed high-grade or brainstem gliomas; assay: Ongoing phase II trial of VPA and radiation; assay type: in vivo, human; conditions: seven children; VPA trough concentrations of 85–115 mcg/ml
[3] = test system: Histone H3 acetylation in PBMCs; assay: PBMC histone H3 acetylation, sandwich ELISA; assay type: in vivo, human; conditions: for Post-VPA/Pre-VPA AcH3: steady state trough
[4] = test system: Histone H4 acetylation in PBMCs; assay: PBMC histone H4 acetylation, sandwich ELISA; assay type: in vivo, human; conditions: steady state trough
[5] = test system: PBMC histone acetylation (AcH3 and AcH4); conditions: 4 hours after a dose of VPA; cited from earlier work
[6] = assay type: in vivo, human; conditions: for Total VPA / Free VPA: at PBMC sampling; for CL/F: CL/F (apparent total body clearance) Median +/− SD; for half-life: t1/2 Median +/− SD
human cancers = conditions: pre-clinical studies; cited from earlier work
histone acetylation = conditions: at the time of maximal drug concentration; cited from earlier work
[7] = Cycle 1 (16 total cycle), 16 evaluable patients
[8] = Cycle 2 to 7 (15 total cycles), 16 evaluable patients
[9] = human, plasma, po, Steady State, Free VPA (n = 4), oral
[10] = human, plasma, po, Steady State, Total VPA (n = 4), oral

SMILES: CCCC(CCC)C(=O)O [VPA, Valproic acid]
- Description of DLTs ([1]; Cohort 0 (trough VPA level 75–100 mcg/ml), TID dosing): None
- Description of DLTs ([1]; Cohort 1 (trough VPA level 100–150 mcg/ml), BID dosing): grade 3 somnolence; also recorded: Somnolence (1)
- Description of DLTs ([1]; Cohort 1 (trough VPA level 100–150 mcg/ml), TID dosing): grade-3 somnolence and grade-5 hemorrhage/hemothorax; also recorded: Somnolence (1) Pulmonary hemorrhage (1) Dyspnea (1) Hypoxia (1) Hypotension (1) Hypocalcemia (1)
- Anemia, non-dose limiting, maximum Grade 1 [1, 7]: 3
- Anemia, non-dose limiting, maximum Grade 2 [1, 7]: 2
- Anemia, non-dose limiting, maximum Grade 4 [1, 7]: 1
- Dizziness, non-dose limiting, maximum Grade 1 [1, 7]: 4
- Fatigue, non-dose limiting, maximum Grade 1 [1, 7]: 3
- Fatigue, non-dose limiting, maximum Grade 2 [1, 7]: 2
- Headache, non-dose limiting, maximum Grade 1 [1, 7]: 1
- Headache, non-dose limiting, maximum Grade 2 [1, 7]: 1
- Hypoalbuminemia, non-dose limiting, maximum Grade 1 [1, 7]: 1
- Hypoalbuminemia, non-dose limiting, maximum Grade 2 [1, 7]: 2
- Leukopenia, non-dose limiting, maximum Grade 1 [1, 7]: 5
- Leukopenia, non-dose limiting, maximum Grade 2 [1, 7]: 1
- Lymphopenia, non-dose limiting, maximum Grade 1 [1, 7]: 4
- Lymphopenia, non-dose limiting, maximum Grade 2 [1, 7]: 1
- Lymphopenia, non-dose limiting, maximum Grade 4 [1, 7]: 1
- Nausea, non-dose limiting, maximum Grade 1 [1, 7]: 1
- Nausea, non-dose limiting, maximum Grade 3 [1, 7]: 1
- Neutropenia, non-dose limiting, maximum Grade 1 [1, 7]: 1
- Somnolence, non-dose limiting, maximum Grade 2 [1, 7]: 1
- Thrombocytopenia, non-dose limiting, maximum Grade 1 [1, 7]: 6
- Thrombocytopenia, non-dose limiting, maximum Grade 2 [1, 7]: 2
- Vomiting, non-dose limiting, maximum Grade 2 [1, 7]: 2
- Anemia, non-dose limiting, maximum Grade 1 [1, 8]: 2
- Anemia, non-dose limiting, maximum Grade 2 [1, 8]: 1
- Dizziness, non-dose limiting, maximum Grade 1 [1, 8]: 1
- Fatigue, non-dose limiting, maximum Grade 2 [1, 8]: 1
- Headache, non-dose limiting, maximum Grade 2 [1, 8]: 1
- Leukopenia, non-dose limiting, maximum Grade 2 [1, 8]: 1
- Leukopenia, non-dose limiting, maximum Grade 3 [1, 8]: 1
- Lymphopenia, non-dose limiting, maximum Grade 1 [1, 8]: 2
- Lymphopenia, non-dose limiting, maximum Grade 3 [1, 8]: 1
- Neutropenia, non-dose limiting, maximum Grade 2 [1, 8]: 1
- Neutropenia, non-dose limiting, maximum Grade 3 [1, 8]: 1
- Neutropenia, non-dose limiting, maximum Grade 4 [1, 8]: 1
- Thrombocytopenia, non-dose limiting, maximum Grade 1 [1, 8]: 2
- Thrombocytopenia, non-dose limiting, maximum Grade 4 [1, 8]: 1
- Toxicity of radiation and VPA [2]: without encountering neuro-toxicities or other dose-limiting toxicities
- Patients with reduced post-treatment AcH3 and AcH4 levels in PBMCs ([3]; 10 patients studied): Five
- Patients with increased AcH3 and AcH4 levels in PBMCs ([3]; 10 patients studied, at trough VPA exposure): Five and 5 out of 10
- Post-VPA/Pre-VPA AcH3 ([3]; Patient 712904): 0.75
- Post-VPA/Pre-VPA AcH3 ([3]; Patient 714036): 0.93
- Post-VPA/Pre-VPA AcH3 ([3]; Patient 734297): 1.51
- Post-VPA/Pre-VPA AcH3 ([3]; Patient 747001): 0.43
- Post-VPA/Pre-VPA AcH3 ([3]; Patient 757318): 1.44
- Post-VPA/Pre-VPA AcH3 ([3]; Patient 769495): 1.38
- Post-VPA/Pre-VPA AcH3 ([3]; Patient 770113): 0.90
- Patients with increased PBMC histone acetylation ([3]; of patients studied, steady state, H3 and H4): 50%
- Post-VPA/Pre-VPA AcH4 ([4]; Patient 712904): 0.75
- Post-VPA/Pre-VPA AcH4 ([4]; Patient 714036): 0.87
- Post-VPA/Pre-VPA AcH4 ([4]; Patient 734297): 1.11
- Post-VPA/Pre-VPA AcH4 ([4]; Patient 747001): 0.47
- Post-VPA/Pre-VPA AcH4 ([4]; Patient 757318): 1.55
- Post-VPA/Pre-VPA AcH4 ([4]; Patient 769495): 2.45
- Post-VPA/Pre-VPA AcH4 ([4]; Patient 770113): 0.70
- Increases in AcH3 and AcH4 in PBMC [5]: observed in all patients
- Total VPA ([6]; Patient 536584): 81.0 µg/mL
- Total VPA ([6]; Patient 712904): 100.9 µg/mL
- Total VPA ([6]; Patient 714036): 109.0 µg/mL
- Total VPA ([6]; Patient 734297): 78.2 µg/mL
- Free VPA ([6]; Patient 747001): 19.1 µg/mL
- Total VPA ([6]; Patient 747001): 90.9 µg/mL
- Total VPA ([6]; Patient 752294): 134.1 µg/mL
- Free VPA ([6]; Patient 757318): 36.6 µg/mL
- Total VPA ([6]; Patient 757318): 90.1 µg/mL
- Free VPA ([6]; Patient 769495): 8.1 µg/mL
- Total VPA ([6]; Patient 769495): 77.0 µg/mL
- Free VPA ([6]; Patient 770059): 11 µg/mL
- Total VPA ([6]; Patient 770059): 105.7 µg/mL
- Free VPA ([6]; Patient 770113): 8 µg/mL
- Total VPA ([6]; Patient 770113): 55.7 µg/mL
- Mean steady state VPA dose ([6]; VPA concentration 75–100 mcg/ml, syrup and capsules (n = 2)): 12.5 ± 3.5 mg/kg
- Mean steady state VPA dose ([6]; VPA concentration 75–100 mcg/ml, syrup only (n = 4)): 17.5 ± 2.9 mg/kg
- Mean steady state VPA dose ([6]; VPA concentrations 100–150 mcg/ml, syrup and capsules (n = 8)): 41.3 ± 20.7 mg/kg
- Mean steady state VPA dose ([6]; VPA concentrations 100–150 mcg/ml, syrup only (n = 10)): 36.0 ± 27.7 mg/kg
- concentration at 9 weeks ([6]; human, plasma, oral): 123 µg/mL
- concentration at 3 days ([6]; human, plasma, oral, 25 mg/kg/day): 172 µg/mL
- Vd/F ([6]; human, plasma, po, 25 mg/kg/day): 0.12 L/kg
- CL/F ([6]; human, plasma, po, 25 mg/kg/day, First dose, Total VPA (n = 4), oral): 0.2 mL/min/kg
- CL/F [6, 9]: 0.87 mL/min/kg
- CL/F [6, 10]: 0.133 mL/min/kg
- half-life [6, 9]: 6.5 h
- half-life [6, 10]: 11.4 h
- Mean final dose of VPA ([6]; starting dose 25 mg/kg/day divided b.i.d., trough above 100 mcg/ml): exceeded 50 mg/kg/day
- Number of dose escalations to achieve targeted concentrations (mean ± SD) ([6]; t.i.d. dosing): 1.3 ± 0.5
- Mean final dose of VPA ([6]; t.i.d., starting dose 15 mg/kg/day): less than 20 mg/kg/day
- Free VPA concentration as % of total concentration (mean +/− SD) ([6]; total VPA concentration exceeded 125 mcg/ml, 8 measurements): 44.9 +/− 15.8%
- Free VPA concentration as % of total concentration (mean +/− SD) ([6]; total VPA concentrations below 100 mcg/ml, 32 measurements): 16.8 +/− 6.9%
- Free VPA concentration as % of total concentration (mean +/− SD) ([6]; total VPA concentrations between 100–125 mcg/ml, 17 measurements): 21.3 +/− 11.5%
- Fraction of free VPA ([6]; until total VPA concentrations exceeded 125 mcg/ml): less than 0.25
- Threshold VPA concentration associated with anti-tumor activity (human cancers): exceeded 100 mcg/ml

SMILES: C/C=C1\NC(=O)[C@H]2CSSCC/C=C/[C@H](CC(=O)N[C@H](C(C)C)C(=O)N2)OC(=O)[C@H](C(C)C)NC1=O [depsipeptide]
- Histone hyper-acetylation (histone acetylation): histone hyper-acetylation in all patients
